pIC50: −log10 of the molar value.

Results on 17 compounds are retold here after the Kinase Knowledgebase extract (Sharma et al. 2016).

This test concerns the target MAPK14 (human) (UniProt Q16539). Put plainly: Inhibition of MAPK14 Kinase Activity.

MAPK14 (human), sequence (Q16539 whole entry, looked up): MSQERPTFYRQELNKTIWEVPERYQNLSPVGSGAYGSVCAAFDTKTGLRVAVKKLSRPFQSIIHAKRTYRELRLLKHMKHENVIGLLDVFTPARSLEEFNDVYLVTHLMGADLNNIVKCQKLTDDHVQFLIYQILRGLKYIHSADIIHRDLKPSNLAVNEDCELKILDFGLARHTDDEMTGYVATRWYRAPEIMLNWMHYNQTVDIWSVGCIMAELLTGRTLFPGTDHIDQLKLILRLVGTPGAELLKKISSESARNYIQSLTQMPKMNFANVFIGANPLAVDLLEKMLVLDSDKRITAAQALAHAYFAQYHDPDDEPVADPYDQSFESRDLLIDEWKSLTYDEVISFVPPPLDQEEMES

As for `COC(=O)c1sc(NC(=O)c2ccc(F)cc2)c(C)c1C#N`, the pIC50 is over 4.82.
In the case of `Cc1c(NC(=O)Nc2nnc(N3CCOCC3)s2)sc(C(=O)N2CCOCC2)c1Cl`, the pIC50 was over 4.82.
The value for `COC(=O)c1sc(NC(=O)Nc2cc(C(C)(C)C)nn2-c2ccc(F)cc2)c(C#N)c1C` was over 4.82; that for `CCOC(=O)c1ccc(NC(=O)Nc2cc(C(C)(C)C)nn2-c2ccc(F)cc2)s1` was over 4.82; that for `Cc1c(NC(=O)Nc2nnc(C3CCCCC3)s2)sc(C(=O)N2CCOCC2)c1Cl` was over 4.82.
With `CC(C)(C)c1cc(NC(=O)Nc2ccc(C(=O)N3CCOCC3)s2)n(-c2ccc(F)cc2)n1`, the pIC50 is over 4.82.
`COC(=O)c1sc(NC(=O)c2cc(F)cc(N3CCOCC3)c2)c(C)c1Cl` showed a pIC50 of over 4.82.
With `Cc1cc(NC(=O)c2cc(F)cc(N3CCOCC3)c2)sc1C(=O)N1CCOCC1` the figure was over 4.82; with `Cc1c(NC(=O)c2ccc(F)cc2)sc(C(=O)N2CCOCC2)c1Cl`, over 4.82.
`Cc1c(NC(=O)c2ccc(F)cc2)sc(C(=O)Nc2ccc(F)cc2)c1Cl` had a pIC50 of over 4.82.
The compound `Cc1c(NC(=O)c2cc(F)cc(N3CCOCC3)c2)sc(C(=O)N2CCOCC2)c1Cl` gave a pIC50 of over 4.82.
The compound `COC(=O)c1sc(NC(=O)Nc2cc(C(C)(C)C)nn2-c2ccc(F)cc2)c(C)c1Cl` showed a pIC50 of over 4.82.
`Cc1c(NC(=O)Nc2cc(C(C)(C)C)nn2-c2ccc(F)cc2)sc(C(=O)NCc2ccncc2)c1Cl` showed a pIC50 of over 4.82.
`Cc1c(NC(=O)c2cc(F)cc(N3CCOCC3)c2)sc(C(=O)Nc2ccc(F)cc2)c1Cl` showed a pIC50 of over 4.82.
Turning to `Cc1c(NC(=O)Nc2cc(C(C)(C)C)nn2-c2ccc(F)cc2)sc(C(=O)N2CCN(C)CC2)c1Cl`, the pIC50 was over 4.82.
Take `Cc1c(NC(=O)Nc2cc(C(C)(C)C)nn2-c2ccc(F)cc2)sc(C(=O)N2CCOCC2)c1Cl`: the pIC50 is over 4.82.
In the case of `Cc1c(NC(=O)Nc2cc(C(C)(C)C)nn2-c2ccc(F)cc2F)sc(C(=O)N2CCOCC2)c1Cl`, the pIC50 is over 4.82.
